{
  "source": "ChEMBL document CHEMBL1157442",
  "about": "“Discovery of new binding elements in DPP-4 inhibition and their applications in novel DPP-4 inhibitor design” (Bioorg Med Chem Lett, 2008)",
  "key": {"[1]": {"target": "Dipeptidyl peptidase 8 (Homo sapiens, UniProt Q6V1X1)", "sequence (Q6V1X1 whole entry)": "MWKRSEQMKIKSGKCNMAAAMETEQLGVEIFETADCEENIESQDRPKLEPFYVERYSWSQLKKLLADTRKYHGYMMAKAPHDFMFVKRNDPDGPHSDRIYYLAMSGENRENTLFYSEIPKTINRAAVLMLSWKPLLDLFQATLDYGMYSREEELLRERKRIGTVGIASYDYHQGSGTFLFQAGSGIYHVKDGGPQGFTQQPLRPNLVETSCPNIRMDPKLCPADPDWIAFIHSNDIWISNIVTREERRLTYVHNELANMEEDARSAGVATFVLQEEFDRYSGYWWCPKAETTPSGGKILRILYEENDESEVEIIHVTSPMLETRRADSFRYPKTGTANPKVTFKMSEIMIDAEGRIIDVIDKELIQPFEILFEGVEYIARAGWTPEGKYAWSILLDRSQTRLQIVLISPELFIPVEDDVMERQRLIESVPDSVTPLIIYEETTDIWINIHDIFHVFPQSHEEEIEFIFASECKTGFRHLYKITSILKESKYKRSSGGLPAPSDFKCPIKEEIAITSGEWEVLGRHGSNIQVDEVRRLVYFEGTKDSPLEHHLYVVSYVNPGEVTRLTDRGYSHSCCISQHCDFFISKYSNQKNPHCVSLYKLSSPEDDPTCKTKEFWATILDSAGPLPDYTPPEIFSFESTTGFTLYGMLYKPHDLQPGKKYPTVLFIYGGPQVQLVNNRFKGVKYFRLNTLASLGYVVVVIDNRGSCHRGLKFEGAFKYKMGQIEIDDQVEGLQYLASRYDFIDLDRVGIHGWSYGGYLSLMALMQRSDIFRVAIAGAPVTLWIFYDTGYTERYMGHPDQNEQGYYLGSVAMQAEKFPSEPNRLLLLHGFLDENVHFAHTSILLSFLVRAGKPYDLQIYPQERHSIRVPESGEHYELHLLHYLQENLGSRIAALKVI", "assay": "Inhibition of DPP8"}, "[2]": {"assay": "Clearance in rat plasma at 1 mg/kg, iv and 2 mg/kg, po", "assay_type": "ADME, organism-based"}, "[3]": {"assay": "Cmax in rat 1 mg/kg, iv and 2 mg/kg, po", "assay_type": "ADME, organism-based", "conditions": "in vivo"}, "[4]": {"assay": "Oral bioavailability in rat at 2 mg/kg", "assay_type": "ADME, organism-based", "conditions": "in vivo"}, "[5]": {"assay": "Half life in rat plasma 1 mg/kg, iv and 2 mg/kg, po", "assay_type": "ADME, organism-based"}, "[6]": {"target": "Dipeptidyl peptidase 4 (Homo sapiens, UniProt P27487)", "sequence (P27487 whole entry)": "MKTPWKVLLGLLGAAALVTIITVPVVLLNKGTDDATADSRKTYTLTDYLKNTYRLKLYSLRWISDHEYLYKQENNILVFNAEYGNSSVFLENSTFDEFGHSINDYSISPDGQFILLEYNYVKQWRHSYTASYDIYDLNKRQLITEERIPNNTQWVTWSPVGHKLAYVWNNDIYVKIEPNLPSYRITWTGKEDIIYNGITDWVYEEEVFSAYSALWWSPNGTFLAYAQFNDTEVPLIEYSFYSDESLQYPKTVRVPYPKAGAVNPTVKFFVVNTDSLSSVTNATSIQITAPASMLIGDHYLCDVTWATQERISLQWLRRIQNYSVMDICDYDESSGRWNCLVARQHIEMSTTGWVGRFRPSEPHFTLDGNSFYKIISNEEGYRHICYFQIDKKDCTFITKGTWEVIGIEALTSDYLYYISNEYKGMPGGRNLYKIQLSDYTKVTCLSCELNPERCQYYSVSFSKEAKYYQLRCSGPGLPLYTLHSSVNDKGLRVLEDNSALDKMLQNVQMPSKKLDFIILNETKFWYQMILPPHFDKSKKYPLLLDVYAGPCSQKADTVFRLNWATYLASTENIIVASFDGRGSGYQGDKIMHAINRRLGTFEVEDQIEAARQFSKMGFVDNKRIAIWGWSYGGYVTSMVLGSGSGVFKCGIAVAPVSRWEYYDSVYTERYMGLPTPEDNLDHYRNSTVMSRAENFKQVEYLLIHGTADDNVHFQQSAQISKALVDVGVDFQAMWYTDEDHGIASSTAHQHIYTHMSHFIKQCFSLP", "assay": "Inhibition of DPP4"}},
  "data": [
    {"smiles": "C[C@H](c1nc(-c2ccc(OC(F)(F)F)cc2)no1)[C@H](N)C(=O)N1CCCC1", "values": [
      {"measurement": "IC50", "setting": "[1]", "result": "> 100", "unit": "µM"}
    ]},
    {"smiles": "NC(=O)c1cccc(-c2ccc([C@H](N)Cc3cc(F)ccc3F)cc2)c1", "values": [
      {"measurement": "clearance", "setting": "[2]", "result": 13, "unit": "mL/min/kg"},
      {"measurement": "Cmax", "setting": "[3]", "result": 2100, "unit": "nM"},
      {"measurement": "bioavailability", "setting": "[4]", "result": 130, "unit": "%"},
      {"measurement": "half-life", "setting": "[5]", "result": 3.8, "unit": "h"},
      {"measurement": "IC50", "setting": "[1]", "result": "> 100", "unit": "µM"}
    ]},
    {"smiles": "C[C@@H]1C(=O)NCCCN1C(=O)C[C@H](N)Cc1ccccc1F", "values": [
      {"measurement": "IC50", "setting": "[6]", "result": 0.04, "unit": "µM"}
    ]},
    {"smiles": "N[C@H](Cc1cc(F)ccc1F)c1ccc(-c2ccncc2Cl)cc1", "values": [
      {"measurement": "IC50", "setting": "[6]", "result": 0.107, "unit": "µM"},
      {"measurement": "IC50", "setting": "[1]", "result": "> 100", "unit": "µM"}
    ]},
    {"smiles": "C[C@H](c1nc(-c2ccc(Cl)cc2Cl)no1)[C@H](N)C(=O)N1CC[C@H](F)C1", "values": [
      {"measurement": "IC50", "setting": "[6]", "result": 0.615, "unit": "µM"},
      {"measurement": "IC50", "setting": "[1]", "result": "> 100", "unit": "µM"}
    ]},
    {"smiles": "C[C@H](c1nc(-c2ccc(S(C)(=O)=O)cc2Cl)no1)[C@H](N)C(=O)N1CC[C@H](F)C1", "values": [
      {"measurement": "IC50", "setting": "[1]", "result": "> 100", "unit": "µM"}
    ]},
    {"smiles": "N[C@H](Cc1cc(F)ccc1F)c1ccc(Br)cc1", "values": [
      {"measurement": "IC50", "setting": "[1]", "result": "> 100", "unit": "µM"}
    ]},
    {"smiles": "Cc1noc(C(=O)C[C@H](N)Cc2cc(F)ccc2F)n1", "values": [
      {"measurement": "IC50", "setting": "[1]", "result": "> 100", "unit": "µM"}
    ]},
    {"smiles": "C[C@@H](c1ccc(-c2ccncc2Cl)cc1)[C@H](N)C(=O)N1CC[C@H](F)C1", "values": [
      {"measurement": "IC50", "setting": "[6]", "result": 0.071, "unit": "µM"},
      {"measurement": "IC50", "setting": "[1]", "result": "> 100", "unit": "µM"}
    ]},
    {"smiles": "C[C@@H](c1nc(-c2ccc(Cl)cc2Cl)no1)[C@H](N)Cc1cc(F)c(F)cc1F", "values": [
      {"measurement": "IC50", "setting": "[6]", "result": 0.6, "unit": "µM"},
      {"measurement": "IC50", "setting": "[1]", "result": "> 100", "unit": "µM"}
    ]},
    {"smiles": "C[C@@H](c1nc(-c2ccc(OC(F)(F)F)cc2)no1)[C@H](N)Cc1cc(F)ccc1F", "values": [
      {"measurement": "IC50", "setting": "[6]", "result": 4.4, "unit": "µM"},
      {"measurement": "IC50", "setting": "[1]", "result": "> 100", "unit": "µM"}
    ]},
    {"smiles": "C[C@@H](c1nc(-c2ccc(S(C)(=O)=O)cc2Cl)no1)[C@H](N)Cc1cc(F)c(F)cc1F", "values": [
      {"measurement": "IC50", "setting": "[6]", "result": 0.046, "unit": "µM"},
      {"measurement": "IC50", "setting": "[1]", "result": "> 100", "unit": "µM"}
    ]},
    {"smiles": "N[C@@H](CC(=O)N1CCC[C@H]1CO)C(=O)N1CC[C@H](F)C1", "values": [
      {"measurement": "IC50", "setting": "[6]", "result": 9.2, "unit": "µM"}
    ]}
  ]
}
